The nature of this data set: Intravenous administration of nicotine in rats (plasma nicotine, pharmacokinetics). Format: in vivo, rat (male Lewis rats, Lew/Mol). The settings on record: rat, 0.15 mg/kg BW. From the text: The plasma values obtained after i.v. administration of nicotine were just like those obtained by intranasal administration analysed for the number of phases.
One phase was recognized corresponding to only one elimination phase.
The model was fitted to the data using weighted least squares algoritm with the weighing factor=1.
The plasma nicotine values as a function of time after i.v. administration of nicotine are shown in the below Table 3 and FIG. 2. Six animals were used in the study. The pharmacokinetic parameters are calculated as described for the data obtained by intranasal administration.

Structures are written as SMILES. Read-outs that look alike come from different tables or passages of the source.

With `CN1CCCC1c1cccnc1` (stereo not drawn) [nicotine], the concentration at […] is, setting by setting: (15 minutes after i.v. adm., read-out: Plasma nicotine values, average for 6 rats) 47 ng/mL; (75 minutes after i.v. adm., read-out: Plasma nicotine values, average for 6 rats) 51 ng/mL; (90 minutes after i.v. adm., read-out: Plasma nicotine values, average for 6 rats) 38 ng/mL; (150 minutes after i.v. adm., read-out: Plasma nicotine values, average for 6 rats) 36 ng/mL. Also, the concentration at 0.5 h (30 minutes after i.v. adm., read-out: Plasma nicotine values, average for 6 rats) was 61 ng/mL. In addition, the concentration at 0.75 h (45 minutes after i.v. adm., read-out: Plasma nicotine values, average for 6 rats) amounted to 86 ng/mL. Besides, the concentration at 1 h (60 minutes after i.v. adm., read-out: Plasma nicotine values, average for 6 rats) is 50 ng/mL. In addition, the concentration at 1.75 h (105 minutes after i.v. adm., read-out: Plasma nicotine values, average for 6 rats) is 38 ng/mL. For the same molecule, the concentration at 2 h (120 minutes after i.v. adm., read-out: Plasma nicotine values, average for 6 rats) is 59 ng/mL. Moreover, the concentration at 3 h (180 minutes after i.v. adm., read-out: Plasma nicotine values, average for 6 rats) amounted to 22 ng/mL. Further, the concentration at 3.5 h (210 minutes after i.v. adm., read-out: Plasma nicotine values, average for 6 rats) came to 25 ng/mL. Moreover, under “240 minutes after i.v. adm., read-out: Plasma nicotine values, average for 6 rats”, the concentration at 4 h was found to be 20 ng/mL. The half-life (i.v., SIPHAR, read-out: Half-life (Ke line)) is 156 min. For the same molecule, under “i.v., SIPHAR, read-out: Ke, parameter value (converted)”, the k el is 7.33e-05 s⁻¹. In addition, the AUC(0-inf) (i.v., trapezoidal rule, read-out: AUC0-.infin. (converted)) is 262 ng·h/mL.

The half-life is the time needed for the level to fall by half in the phase considered.

Values taken from patent US5939100A, “Composition for drug delivery comprising nicotine or a derivative thereof and starch microspheres and method for the manufacturing thereof” (Pharmacia and UpJohn AB, priority 1993, dated 1999).
